Data as given in the supplement of paper PMC10307832.

What was measured:
Experiment in all cases: relative viability (nuclei count vs DMSO), 5 days (fraction); higher = more cells survive
LOU-NH91 = test system: LOU-NH91
Method in brief: (§1)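 Five library-drug doses in √10 steps were combined with a fixed anchor-drug dose, or a single drug was given alone, by pin tool to lung cancer cell lines in 1536-well plates the day after seeding. Nuclei were stained and counted after 5 days. Relative viability is the nuclei count in treated wells over that in vehicle wells, taken as the median of duplicate plates.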

NCI-H1666 = test system: NCI-H1666
Method in brief: as §1

NCI-H647 = test system: NCI-H647
Method in brief: as §1

NCI-H2170 = test system: NCI-H2170
Method in brief: as §1

EKVX = test system: EKVX
Method in brief: as §1

SK-MES-1 = test system: SK-MES-1
Method in brief: as §1

HOP-62 = test system: HOP-62
Method in brief: as §1

BEN = test system: BEN
Method in brief: as §1

NCI-H661 = test system: NCI-H661
Method in brief: as §1

NCI-H727 = test system: NCI-H727
Method in brief: as §1

NCI-H1355 = test system: NCI-H1355
Method in brief: as §1

RERF-LC-KJ = test system: RERF-LC-KJ
Method in brief: as §1

LXF-289 = test system: LXF-289
Method in brief: as §1

NCI-H2126 = test system: NCI-H2126
Method in brief: as §1

LK-2 = test system: LK-2
Method in brief: as §1

NCI-H1993 = test system: NCI-H1993
Method in brief: as §1

PC-14 = test system: PC-14
Method in brief: as §1

NCI-H1437 = test system: NCI-H1437
Method in brief: as §1

HCC-827 = test system: HCC-827
Method in brief: as §1

NCI-H1944 = test system: NCI-H1944
Method in brief: as §1

CCNC(=O)c1noc(-c2cc(C(C)C)c(O)cc2O)c1-c1ccc(CN2CCOCC2)cc1 [Luminespib] + CS(=O)(=O)CCNCc1ccc(-c2ccc3ncnc(Nc4ccc(OCc5cccc(F)c5)c(Cl)c4)c3c2)o1 [Lapatinib] (partner 2 µM)
relative viability (LOU-NH91; first compound 0.002 µM): 0.791
relative viability (LOU-NH91; first compound 0.006325 µM): 0.833
relative viability (LOU-NH91; first compound 0.02 µM): 0.588
relative viability (LOU-NH91; first compound 0.06325 µM): 0.338
relative viability (LOU-NH91; first compound 0.2 µM): 0.342
relative viability (NCI-H1666; first compound 0.002 µM): 0.717
relative viability (NCI-H1666; first compound 0.006325 µM): 0.709
relative viability (NCI-H1666; first compound 0.02 µM): 0.585
relative viability (NCI-H1666; first compound 0.06325 µM): 0.718
relative viability (NCI-H1666; first compound 0.2 µM): 0.533
relative viability (NCI-H647; first compound 0.002 µM): 1.2
relative viability (NCI-H647; first compound 0.006325 µM): 1.16
relative viability (NCI-H647; first compound 0.02 µM): 0.359
relative viability (NCI-H647; first compound 0.06325 µM): 0.0578
relative viability (NCI-H647; first compound 0.2 µM): 0.0724
relative viability (NCI-H2170; first compound 0.002 µM): 0.254
relative viability (NCI-H2170; first compound 0.006325 µM): 0.28
relative viability (NCI-H2170; first compound 0.02 µM): 0.248
relative viability (NCI-H2170; first compound 0.06325 µM): 0.291
relative viability (NCI-H2170; first compound 0.2 µM): 0.203
relative viability (EKVX; first compound 0.002 µM): 0.183
relative viability (EKVX; first compound 0.006325 µM): 0.228
relative viability (EKVX; first compound 0.02 µM): 0.175
relative viability (EKVX; first compound 0.06325 µM): 0.158
relative viability (EKVX; first compound 0.2 µM): 0.0973
relative viability (SK-MES-1; first compound 0.002 µM): 0.461
relative viability (SK-MES-1; first compound 0.006325 µM): 0.459
relative viability (SK-MES-1; first compound 0.02 µM): 0.407
relative viability (SK-MES-1; first compound 0.06325 µM): 0.265
relative viability (SK-MES-1; first compound 0.2 µM): 0.159
relative viability (HOP-62; first compound 0.002 µM): 1.13
relative viability (HOP-62; first compound 0.006325 µM): 1.08
relative viability (HOP-62; first compound 0.02 µM): 0.695
relative viability (HOP-62; first compound 0.06325 µM): 0.762
relative viability (HOP-62; first compound 0.2 µM): 0.0994
relative viability (BEN; first compound 0.002 µM): 0.717
relative viability (BEN; first compound 0.006325 µM): 0.536
relative viability (BEN; first compound 0.02 µM): 0.363
relative viability (BEN; first compound 0.06325 µM): 0.211
relative viability (BEN; first compound 0.2 µM): 0.237
relative viability (NCI-H661; first compound 0.002 µM): 0.469
relative viability (NCI-H661; first compound 0.006325 µM): 0.464
relative viability (NCI-H661; first compound 0.02 µM): 0.35
relative viability (NCI-H661; first compound 0.06325 µM): 0.324
relative viability (NCI-H661; first compound 0.2 µM): 0.208
relative viability (NCI-H727; first compound 0.002 µM): 0.82
relative viability (NCI-H727; first compound 0.006325 µM): 0.768
relative viability (NCI-H727; first compound 0.02 µM): 0.435
relative viability (NCI-H727; first compound 0.06325 µM): 0.227
relative viability (NCI-H727; first compound 0.2 µM): 0.192
relative viability (NCI-H1355; first compound 0.002 µM): 0.891
relative viability (NCI-H1355; first compound 0.006325 µM): 1.02
relative viability (NCI-H1355; first compound 0.02 µM): 0.461
relative viability (NCI-H1355; first compound 0.06325 µM): 0.664
relative viability (NCI-H1355; first compound 0.2 µM): 0.153
relative viability (RERF-LC-KJ; first compound 0.002 µM): 0.825
relative viability (RERF-LC-KJ; first compound 0.006325 µM): 0.812
relative viability (RERF-LC-KJ; first compound 0.02 µM): 0.621
relative viability (RERF-LC-KJ; first compound 0.06325 µM): 0.726
relative viability (RERF-LC-KJ; first compound 0.2 µM): 0.294
relative viability (LXF-289; first compound 0.002 µM): 0.905
relative viability (LXF-289; first compound 0.006325 µM): 0.877
relative viability (LXF-289; first compound 0.02 µM): 1.02
relative viability (LXF-289; first compound 0.06325 µM): 0.554
relative viability (LXF-289; first compound 0.2 µM): 0.115
relative viability (NCI-H2126; first compound 0.002 µM): 0.798
relative viability (NCI-H2126; first compound 0.006325 µM): 0.776
relative viability (NCI-H2126; first compound 0.02 µM): 0.582
relative viability (NCI-H2126; first compound 0.06325 µM): 0.647
relative viability (NCI-H2126; first compound 0.2 µM): 0.526
relative viability (LK-2; first compound 0.002 µM): 0.849
relative viability (LK-2; first compound 0.006325 µM): 0.941
relative viability (LK-2; first compound 0.02 µM): 0.545
relative viability (LK-2; first compound 0.06325 µM): 0.252
relative viability (LK-2; first compound 0.2 µM): 0.204
relative viability (NCI-H1993; first compound 0.002 µM): 0.874
relative viability (NCI-H1993; first compound 0.006325 µM): 0.864
relative viability (NCI-H1993; first compound 0.02 µM): 0.654
relative viability (NCI-H1993; first compound 0.06325 µM): 0.491
relative viability (NCI-H1993; first compound 0.2 µM): 0.418
relative viability (PC-14; first compound 0.002 µM): 0.383
relative viability (PC-14; first compound 0.006325 µM): 0.267
relative viability (PC-14; first compound 0.02 µM): 0.247
relative viability (PC-14; first compound 0.06325 µM): 0.138
relative viability (PC-14; first compound 0.2 µM): 0.116
relative viability (NCI-H1437; first compound 0.002 µM): 0.819
relative viability (NCI-H1437; first compound 0.006325 µM): 0.748
relative viability (NCI-H1437; first compound 0.02 µM): 0.703
relative viability (NCI-H1437; first compound 0.06325 µM): 0.243
relative viability (NCI-H1437; first compound 0.2 µM): 0.102
relative viability (HCC-827; first compound 0.002 µM): 0.184
relative viability (HCC-827; first compound 0.006325 µM): 0.184
relative viability (HCC-827; first compound 0.02 µM): 0.172
relative viability (HCC-827; first compound 0.06325 µM): 0.235
relative viability (HCC-827; first compound 0.2 µM): 0.185
relative viability (NCI-H1944; first compound 0.002 µM): 0.869
relative viability (NCI-H1944; first compound 0.006325 µM): 0.724
relative viability (NCI-H1944; first compound 0.02 µM): 0.445
relative viability (NCI-H1944; first compound 0.06325 µM): 0.41
relative viability (NCI-H1944; first compound 0.2 µM): 0.407
